Results from ChEMBL document CHEMBL3580572, “Synthesis of mixed opioid affinity cyclic endomorphin-2 analogues with fluorinated phenylalanines” (ACS Med Chem Lett, 2015).
Calls of active or inactive are those of the source. The calls are words filed in the database; no cut-off is given here. Where a SMILES comes first, the peptide text is derived from it. Bridges are numbered along the chain shown (N, C = ends). [ ]: non-standard residue; d: D form. Phe(4-CF3) = N[C@@H](Cc1ccc(C(F)(F)F)cc1)C(=O)O; Dmt = Cc1cc(O)cc(C)c1C[C@H](N)C(=O)O

Key:
[1] = Metabolic stability in rat brain homogenates assessed as enzymatic degradation by measuring compound remaining at 0.5 mM after 90 mins by RP-HPLC analysis; type: ADME, tissue-based; conditions: brain homogenate, read-out: Stability
[2] = target: Mu-type opioid receptor (Rattus norvegicus, UniProt P33535); test: Displacement of [3H]DAMGO from mu opioid receptor in Wistar rat brain membranes after 120 mins by scintillation counting analysis; type: cell membranes, Membrane
[3] = target: Delta-type opioid receptor (Rattus norvegicus, UniProt P33533); test: Displacement of [3H][Ile5,6]deltorphin-2 from delta opioid receptor in Wistar rat brain membranes after 120 mins by scintillation counting analysis; type: cell membranes, Membrane
[4] = target: Kappa-type opioid receptor (Cavia porcellus, UniProt P41144); test: Displacement of [3H]nor-BNI from kappa opioid receptor in guinea pig brain membranes after 120 mins by scintillation counting analysis; type: cell membranes, Membrane
[5] = target: T1, Mu-type opioid receptor (Homo sapiens, UniProt P35372); test: Agonist activity at human recombinant mu opioid receptor expressed in CHO cells co-expressing C-terminally modified GGalphaqi5 assessed as stimulation of calcium release by Fluo-4 AM dye-based fluorescence assay; type: functional, cell-based
[6] = target: T2, Delta-type opioid receptor (Homo sapiens, UniProt P41143); test: Agonist activity at human recombinant delta opioid receptor expressed in CHO cells co-expressing Galphaq66Di5 assessed as stimulation of calcium release up to 1 uM by Fluo-4 AM dye-based fluorescence assay; type: functional, cell-based
[7] = target: T3, Kappa-type opioid receptor (Homo sapiens, UniProt P41145); test: Agonist activity at human recombinant kappa opioid receptor expressed in CHO cells co-expressing C-terminally modified Galphaqi5 assessed as stimulation of calcium release by Fluo-4 AM dye-based fluorescence assay; type: functional, cell-based
[8] = target: T3, Kappa-type opioid receptor; test: Intrinsic activity at human recombinant kappa opioid receptor expressed in CHO cells co-expressing C-terminally modified Galphaqi5 assessed as efficacy ratio by measuring stimulation of calcium release by Fluo-4 AM dye-based fluorescence assay relative to dynorphin-A; type: functional, cell-based
[9] = target: T1, Mu-type opioid receptor; test: Agonist activity at human recombinant mu opioid receptor expressed in CHO cells co-expressing C-terminally modified Galphaqi5 assessed as stimulation of calcium release up to 1 uM by Fluo-4 AM dye-based fluorescence assay; type: functional, cell-based
[10] = target: T2, Delta-type opioid receptor; test: Agonist activity at human recombinant delta opioid receptor expressed in CHO cells co-expressing Galphaq66Di5 assessed as stimulation of calcium release by Fluo-4 AM dye-based fluorescence assay; type: functional, cell-based
[11] = target: T2, Delta-type opioid receptor; test: Intrinsic activity at human recombinant delta opioid receptor expressed in CHO cells co-expressing Galphaq66Di5 assessed as efficacy ratio by measuring stimulation of calcium release by Fluo-4 AM dye-based fluorescence assay relative to DPDPE; type: functional, cell-based
[12] = system: Mus musculus; test: Antinociceptive activity in icv dosed CD1 mouse assessed as inhibition of jumping behavior after 10 mins by hot plate assay; type: functional, organism-based
[13] = system: Mus musculus; test: Antinociceptive activity in CD1 mouse assessed as inhibition of jumping behavior at 0.3 to 10 mg/kg, ip after 15 mins by hot plate assay; type: functional, organism-based
[14] = system: Mus musculus; test: Antinociceptive activity in CD1 mouse assessed as inhibition of jumping behavior at 100 ng, icv after 10 mins by hot plate assay in presence of mu opioid receptor antagonist beta-FNA; type: functional, organism-based
[15] = system: Mus musculus; test: Antinociceptive activity in CD1 mouse assessed as inhibition of jumping behavior at 100 ng, icv after 10 mins by hot plate assay in presence of kappa opioid receptor antagonist nor-BNI; type: functional, organism-based
[16] = system: Mus musculus; test: Antinociceptive activity in CD1 mouse assessed as maximal possible effect by measuring inhibition of jumping behavior at 10 mg/kg, ip after 15 mins by hot plate assay relative to control; type: functional

T1 sequence (P35372 whole entry): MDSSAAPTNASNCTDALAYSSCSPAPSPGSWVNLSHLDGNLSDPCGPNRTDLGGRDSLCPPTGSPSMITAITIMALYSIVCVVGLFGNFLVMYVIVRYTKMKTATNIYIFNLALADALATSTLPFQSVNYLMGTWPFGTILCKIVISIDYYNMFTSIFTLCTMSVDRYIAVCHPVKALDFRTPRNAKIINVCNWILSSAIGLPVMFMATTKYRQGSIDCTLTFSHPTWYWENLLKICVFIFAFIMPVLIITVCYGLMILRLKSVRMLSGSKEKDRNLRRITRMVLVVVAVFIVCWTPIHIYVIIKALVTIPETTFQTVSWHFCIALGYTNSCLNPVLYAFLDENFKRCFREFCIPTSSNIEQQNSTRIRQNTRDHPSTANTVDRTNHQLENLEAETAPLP
Chain of Mu-type opioid receptor (Rattus norvegicus, UniProt P33535) (P33535 whole entry): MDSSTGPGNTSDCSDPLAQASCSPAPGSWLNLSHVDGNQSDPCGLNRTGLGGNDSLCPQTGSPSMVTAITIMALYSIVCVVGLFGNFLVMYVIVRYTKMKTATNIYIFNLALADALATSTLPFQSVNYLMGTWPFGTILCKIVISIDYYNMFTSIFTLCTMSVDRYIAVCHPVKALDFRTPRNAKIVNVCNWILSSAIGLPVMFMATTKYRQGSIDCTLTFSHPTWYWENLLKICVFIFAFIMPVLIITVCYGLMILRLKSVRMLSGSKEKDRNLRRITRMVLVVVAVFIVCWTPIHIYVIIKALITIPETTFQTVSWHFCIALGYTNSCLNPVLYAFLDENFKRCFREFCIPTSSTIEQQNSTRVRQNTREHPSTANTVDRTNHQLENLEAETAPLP
T2 sequence (P41143 whole entry): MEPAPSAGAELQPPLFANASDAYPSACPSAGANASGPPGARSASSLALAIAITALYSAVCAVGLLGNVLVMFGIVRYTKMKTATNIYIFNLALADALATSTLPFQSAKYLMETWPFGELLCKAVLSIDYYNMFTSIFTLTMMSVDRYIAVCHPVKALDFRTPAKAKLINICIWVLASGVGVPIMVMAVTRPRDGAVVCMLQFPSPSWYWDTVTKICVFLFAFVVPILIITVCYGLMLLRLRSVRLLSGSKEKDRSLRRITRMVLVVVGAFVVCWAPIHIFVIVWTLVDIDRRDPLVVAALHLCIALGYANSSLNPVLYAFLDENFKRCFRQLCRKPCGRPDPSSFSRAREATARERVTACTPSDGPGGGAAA
Chain of Kappa-type opioid receptor (Cavia porcellus, UniProt P41144) (P41144 whole entry): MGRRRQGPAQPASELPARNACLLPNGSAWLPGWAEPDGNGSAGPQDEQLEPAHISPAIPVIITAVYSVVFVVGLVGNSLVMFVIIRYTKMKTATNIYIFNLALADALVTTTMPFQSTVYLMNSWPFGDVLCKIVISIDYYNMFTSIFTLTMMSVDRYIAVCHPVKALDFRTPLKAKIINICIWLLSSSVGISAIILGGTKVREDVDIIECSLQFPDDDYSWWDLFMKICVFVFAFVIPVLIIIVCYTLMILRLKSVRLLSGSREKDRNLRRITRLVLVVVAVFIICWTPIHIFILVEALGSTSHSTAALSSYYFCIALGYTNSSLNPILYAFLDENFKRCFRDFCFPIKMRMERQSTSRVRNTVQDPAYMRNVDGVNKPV
T3 sequence (P41145 whole entry): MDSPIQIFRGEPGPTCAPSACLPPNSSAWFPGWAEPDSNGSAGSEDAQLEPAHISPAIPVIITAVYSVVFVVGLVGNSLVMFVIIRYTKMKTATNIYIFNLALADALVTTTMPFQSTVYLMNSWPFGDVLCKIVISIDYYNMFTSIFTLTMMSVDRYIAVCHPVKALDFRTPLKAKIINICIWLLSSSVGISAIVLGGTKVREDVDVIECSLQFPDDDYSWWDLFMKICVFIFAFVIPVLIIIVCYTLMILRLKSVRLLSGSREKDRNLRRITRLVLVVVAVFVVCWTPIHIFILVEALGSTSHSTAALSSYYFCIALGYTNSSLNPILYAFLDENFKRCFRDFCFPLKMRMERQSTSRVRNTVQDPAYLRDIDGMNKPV
Chain of Delta-type opioid receptor (Rattus norvegicus, UniProt P33533) (P33533 whole entry): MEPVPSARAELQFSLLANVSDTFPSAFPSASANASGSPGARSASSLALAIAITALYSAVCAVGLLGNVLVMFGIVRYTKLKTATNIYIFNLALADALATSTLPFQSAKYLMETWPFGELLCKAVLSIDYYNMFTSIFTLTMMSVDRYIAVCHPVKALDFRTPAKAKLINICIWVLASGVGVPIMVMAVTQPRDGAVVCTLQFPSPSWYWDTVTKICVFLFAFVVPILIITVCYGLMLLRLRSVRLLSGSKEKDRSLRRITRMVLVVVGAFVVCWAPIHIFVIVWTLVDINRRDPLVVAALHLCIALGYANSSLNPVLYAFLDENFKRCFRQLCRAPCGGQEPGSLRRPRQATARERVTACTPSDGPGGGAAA

| Compound | remaining at 1.5 h, 500 µM [1] | IC50 [2] | IC50 [3] | IC50 [4] | EC50 [5] | Activity [6] | EC50 [7] | Ratio [8] | Activity [9] | EC50 [10] | Ratio [11] | inhibition [12] | inhibition [13] | inhibition [14] | inhibition [15] | MPE [16] |
| --- | --- | --- | --- | --- | --- | --- | --- | --- | --- | --- | --- | --- | --- | --- | --- | --- |
| NC(=O)[C@H](Cc1ccccc1)NC(=O)[C@H](Cc1ccccc1)NC(=O)[C@@H]1CCCN1C(=O)[C@@H](N)Cc1ccc(O)cc1 [ENDOMORPHIN 2] | 0.61% | – | – | – | – | – | – | – | – | – | – | – | – | – | – | – |
| Cc1cc(O)cc(C)c1C[C@H](N)C(=O)N[C@@H]1CCCCNC(=O)C[C@@H](C(N)=O)NC(=O)[C@H](Cc2ccccc2)NC(=O)[C@H](Cc2ccc(F)cc2)NC1=O | 96% | 0.55 nM | 280 nM | 2.4 nM | 2.51 nM | inactive | 4.79 nM | 0.79 | – | – | – | – | – | – | – | – |
| NC(=O)[C@@H]1CC(=O)NCCCC[C@@H](NC(=O)[C@@H](N)Cc2ccc(O)cc2)C(=O)N[C@@H](Cc2ccc(C(F)(F)F)cc2)C(=O)N[C@@H](Cc2ccccc2)C(=O)N1 | 97% | > 1000 nM | > 1000 nM | 24.5 nM | – | inactive | 72.4 nM | 0.7 | inactive | – | – | – | – | – | – | – |
| Cc1cc(O)cc(C)c1C[C@H](N)C(=O)N[C@@H]1CCCCNC(=O)C[C@@H](C(N)=O)NC(=O)[C@H](Cc2ccccc2)NC(=O)[C@H](Cc2ccc(C(F)(F)F)cc2)NC1=O | 96% | > 1000 nM | > 1000 nM | 6.4 nM | – | – | – | – | inactive | 9.33 nM | 0.28 | – | – | – | – | – |
| NC(=O)[C@@H]1CC(=O)NCCCC[C@@H](NC(=O)[C@@H](N)Cc2ccc(O)cc2)C(=O)N[C@@H](Cc2ccc(F)cc2F)C(=O)N[C@@H](Cc2ccccc2)C(=O)N1 | 93% | 0.69 nM | > 1000 nM | 3.26 nM | 4.07 nM | inactive | 7.59 nM | 0.78 | – | – | – | – | – | – | – | – |
| Cc1cc(O)cc(C)c1C[C@H](N)C(=O)N[C@@H]1CCCCNC(=O)C[C@@H](C(N)=O)NC(=O)[C@H](Cc2ccc(F)cc2)NC(=O)[C@H](Cc2ccccc2)NC1=O | 93% | 0.61 nM | 168 nM | 0.55 nM | 2.75 nM | – | 2.24 nM | 0.71 | – | 33.9 nM | 0.21 | Dose-dependent effect | Active | inactive | Active | – |
| Cc1cc(O)cc(C)c1C[C@H](N)C(=O)N[C@@H]1CCCCNC(=O)C[C@@H](C(N)=O)NC(=O)[C@H](Cc2ccccc2)NC(=O)[C@H](Cc2ccc(F)cc2F)NC1=O | 94% | 0.54 nM | 342 nM | 0.6 nM | 5.13 nM | – | 2.82 nM | 0.65 | – | – | – | – | – | – | – | – |
| NC(=O)[C@@H]1CC(=O)NCCCC[C@@H](NC(=O)[C@@H](N)Cc2ccc(O)cc2)C(=O)N[C@@H](Cc2ccccc2)C(=O)N[C@@H](Cc2ccc(F)cc2)C(=O)N1 | 93% | 0.98 nM | 286 nM | 0.6 nM | 3.24 nM | – | 1.05 nM | 0.88 | – | 51.3 nM | 0.2 | – | – | – | – | – |
| NC(=O)[C@@H]1CC(=O)NCCCC[C@@H](NC(=O)[C@@H](N)Cc2ccc(O)cc2)C(=O)N[C@@H](Cc2ccccc2)C(=O)N[C@@H](Cc2ccc(F)cc2F)C(=O)N1 | 94% | 0.42 nM | 110 nM | 0.9 nM | 6.31 nM | – | 4.9 nM | 0.78 | – | 126 nM | 0.5 | – | – | – | – | – |
| NC(=O)[C@@H]1CC(=O)NCCCC[C@@H](NC(=O)[C@@H](N)Cc2ccc(O)cc2)C(=O)N[C@@H](Cc2ccccc2)C(=O)N[C@@H](Cc2ccc(C(F)(F)F)cc2)C(=O)N1 | 97% | 1.6 nM | 429 nM | 1.5 nM | 5.25 nM | – | 11.7 nM | 0.78 | – | 162 nM | 0.27 | – | – | – | – | – |
| NC(=O)[C@@H]1CC(=O)NCCCC[C@@H](NC(=O)[C@@H](N)Cc2ccc(O)cc2)C(=O)N[C@@H](Cc2ccc(F)cc2)C(=O)N[C@@H](Cc2ccccc2)C(=O)N1 | 96% | 0.72 nM | 348 nM | 2.43 nM | 2.57 nM | – | 10 nM | 0.89 | – | 457 nM | 0.14 | – | – | – | – | – |
| Cc1cc(O)cc(C)c1C[C@H](N)C(=O)N[C@@H]1CCCCNC(=O)C[C@@H](C(N)=O)NC(=O)[C@H](Cc2ccc(C(F)(F)F)cc2)NC(=O)[C@H](Cc2ccccc2)NC1=O (H-[Dmt][dK]F[Phe(4-CF3)]D-NH2; lactam 2-5) | 93% | 0.92 nM | > 1000 nM | 1.15 nM | 6.76 nM | inactive | 3.63 nM | 0.6 | – | – | – | – | – | – | – | – |
| Cc1cc(O)cc(C)c1C[C@H](N)C(=O)N[C@@H]1CCCCNC(=O)C[C@@H](C(N)=O)NC(=O)[C@H](Cc2ccc(F)cc2F)NC(=O)[C@H](Cc2ccccc2)NC1=O | 97% | 0.49 nM | 11.2 nM | 0.3 nM | 1.66 nM | – | 1.35 nM | 0.82 | – | 8.71 nM | 0.37 | Dose-dependent effect | – | inactive | Active | 84% |
